Experimental data reported in US6537754B1, “Association of kinesin with sensitivity to chemotherapeutic drugs” (Board of Trustees of the University of Illinois, priority 1990, dated 2003).
Starred links: 1 amine or outer side, 2 acyl side, 3 side chain; linkers in the order of their positions; H or OH if unused. Positions of bridges follow the written chain, without caps; N, C: chain ends. Non-standard residues stand in square brackets, D forms with d. Residues, ends and D or L forms follow the SMILES beside them. Chains are numbered I, II in the order given. Actinocin(9to1) = Cc1c2oc3c(C)ccc(C(=O)[*:1])c3nc-2c(C(=O)[*:2])c(N)c1=O; NMeV = CN[C@H](C(=O)O)C(C)C; Sar = CNCC(=O)O

Legend:
[1] = system: NIH 3T3 cells; assay: long-term growth inhibition assays (cytostatic and cytotoxic effects), cells carrying anti-khcs GSE vs control; type: cell-based, mouse; conditions: for sensitivity of anti-khcs GSE cells to the drug (surviving cells as percentage of growth without drug): 2x10^4 cells per dish, five days in drug, FIGS. 12A and 12B; for resistance or sensitivity of GSE-carrying cells to the drug, long-term assay: four days in drug, then two or six days without drug, anti-khcs cells vs control
Method: Cells were incubated with the drugs for 4 days, followed by 2 or […] in drug-free media, as indicated. Cell growth, presented in arbitrary units, was evaluated by methylene blue staining.
To further characterize the nature of drug resistance conferred by anti-khcs, the above-described short-term growth inhibition assays were followed by long-term growth inhibition assays which measured both the cytostatic and the cytotoxic effects of different drugs. These assays were carried out by incubating the cells for four days in the presence of the drugs, followed by either two or six days in the absence of the drug, to allow for programmed cell death, which is frequently associated with recovery from drug-induced inhibition (Kung et al., 1990, Cancer Res. 50: 7307-7317).
Thus, in the experiment shown in FIGS. 12A and 12B, NIH 3T3 cells carrying the anti-khcs GSE and control cells without the GSE were plated at a density of 2×10^4 per culture dish and grown for five days in concentrations of either colchicine or vinblastine. The cells were then fixed and stained, and the number of surviving cells determined and shown as a percentage of cell growth in the absence of drug.

[2] = system: NIH 3T3 cells; assay: dynamics of cell growth during and after drug treatment, anti-khcs GSE cells vs control; type: cell-based, mouse; conditions: for effect of the drug in continuous presence / cell death after removal of the drug: 250 ng/mL etoposide, 20 ng/mL camptothecin, 40 ng/mL colchicine; for effect of anti-khcs GSE on the growth-inhibitory effect of the drug: 5 or 11 days continuous exposure, anti-khcs cells vs control; for cell death after removal of the drug: control cells; for cell death after removal of the drug / effect of anti-khcs GSE on cell death after release from the drug: drug removed after 5 days; for overall change in drug resistance conferred by anti-khcs GSE, release vs continuous exposure: long-term, 11 days
Method: Cell growth was measured as described for FIGS. 12A and 12B. Cells were plated and one day later (indicated by the first arrow) the indicated drugs were added at concentrations as described. Four days later (indicated by the second arrow), the drugs were removed from some of the plates. Solid lines indicate cell growth in the continuous presence of the drug, and broken lines indicate cell growth after removal of the drug.
In these experiments (shown in FIGS. 13A through 13D), NIH 3T3 cells were treated with the corresponding drugs for 5 days, and then incubated for additional 6 days either in the presence or in the absence of the drug. […] After 11 days of drug exposure the total cell number in the etoposide- or camptothecin-treated populations of control cells was a little lower than after 5 days of drug exposure, but in the colchicine-treated control cell population a slow cell growth was still detectable. In the experiments where the drug was removed after 5 days, cell growth was initially activated for all three drugs.
The expression of the anti-khcs GSE had different effects on the growth inhibition and recovery-associated cell death induced by these drugs.

[3] = system: NIH 3T3 cells; assay: short-term (4-day) growth inhibition assay, methylene blue staining, cells carrying anti-khcs GSE vs insert-free vector control; type: cell-based, mouse; conditions: NIH 3T3 infected with anti-khcs virus vs insert-free vector; 4 days drug exposure
Method: Drug concentrations are given in ng/mL.
A 1:1 mixture of ecotropic and amphotropic packaging cells was transfected with retroviral vector pLNCX carrying the anti-khcs GSE using a standard calcium phosphate procedure. […] This virus-containing supernatant was used to infect NIH 3T3 cells, 10 times with 12 hour intervals. Control cells were infected in parallel with the insert-free vector virus obtained by the same procedure. […] DNA from the infected cells was analyzyed by Southern blot hybridization with a virus-specific probe.
The infected cell population described in Example 7 were analyzed for resistance to several anticancer drugs by a growth inhibition assay. For this assay, 10^4 cells per well were plated in 12-well plated and exposed to increasing concentrations of different drugs for 4 days. Relative cell numbers were measured by the methylene blue staining assay (Perry et al., 1992, Mutation Res. 286: 189-197). […] All of these drugs are known to induce DNA damage, albeit by different mechanism.

[4] = system: primary mouse embryo fibroblasts (MEF); assay: life span / immortalization of senescent primary fibroblasts after infection with GSE virus; type: cell-based
Method: The virus carrying the anti-khcs GSE was treated for the ability to increase the life span of primary mouse embryo fibroblasts (MEF). MEF were prepared from 10 day old mouse embryos by a standard trypsinization procedure and senescent cells were frozen at different passages prior to crisis. Senescent MEF, two weeks before crisis, were infected with recombinant retroviruses carrying LNCX vector either without an insert or with anti-khcs.

[5] = system: NIH 3T3 cells; assay: etoposide resistance with GSE under IPTG-inducible promoter; type: cell-based, mouse; conditions: 5 mM IPTG; IPTG-dependent; vs insert-free vector
From the text: The components of this system include an enhancer-dependent promoter, combined in cis with multiple repeats of the bacterial lac operator, and a gene expressing LAP265, an artificial regulatory protein derived from the lac repressor and a mammalian transcriptional activator. The anti-khcs GSE was cloned into the plasmid pX6.CLN, which contains the inducible promoter used by Baim et al., supra (a gift of Dr. T. Shenk) which expresses the inserts from an enhancerless SV40 early gene promoter supplemented with 21 repeats of the lac operator sequence. The resulting plasmid, which contains no selectable markers, was co-transfected into NIH 3T3 cells together with the LNCX plasmid carrying the neo gene.

[6] = system: primary human fibroblasts; assay: life span of primary human skin fibroblasts after infection with GSE virus; type: cell-based
Method: Primary human fibroblasts, derived from human skin, were obtained from the Aging Cell Repository of the National Institutes of Aging. The cells were grown in DMEM with 20% fetal calf serum supplemented with twice the concentration of amino acids and vitamins normally used to supplement normal human skin fibroblast growth in culture. Cells at the fifth passage were infected with either the control pLNCX virus or the virus carrying mouse anti-khcs GSE (produced as described above in Example 3).

[7] = system: NIH 3T3 cells; assay: growth parameters of multiply-infected cells; type: cell-based, mouse; conditions: multiple integrated provirus copies; normalised after several passages
From the text: A 1:1 mixture of ecotropic and amphotropic packaging cells was transfected with retroviral vector pLNCX carrying the anti-khcs GSE using a standard calcium phosphate procedure. Two weeks later, the virus titer, as measured by the formation of G418- resistance NIH 3T3 colonies, reached >10^6 infectious units per mL as a result of “ping-pong” infection (see Bodine et al., 1990, Proc. Natl. Acad. Sci. USA 87: 3738-3742). This virus-containing supernatant was used to infect NIH 3T3 cells, 10 times with 12 hour intervals. Control cells were infected in parallel with the insert-free vector virus obtained by the same procedure. […] DNA from the infected cells was analyzyed by Southern blot hybridization with a virus-specific probe.
At this stage, the cells were frozen and used for the experiments described below.

[8] = system: NIH 3T3 cells; assay: etoposide selection after retroviral transduction of GSEs; type: cell-based, mouse; conditions: recloned proviral inserts in LNCX vector
Method: This selection was carried out directly on virus-producing packaging cells, in the expectation that cells whose resistant phenotype is caused by the GSE expression will produce virus particles carrying such a GSE. The mixture of amphotropic and ecotropic packaging cells was transfected with the cDNA library in the LNCX vector, prepared according to Example 1, and the virus was allowed to spread through the population for 9 days.
The proviral inserts contained in the etoposide-selected NIH 3T3 cells were analyzed by PCR. […] Individual PCR-amplified fragments were recloned into the LNCX vector in the same position and orientation as in the original plasmid, as illustrated in FIG. 4C. […] These GSEs wee named anti-khcs, VPA and VP9-11.

COc1cc2c(c(OC)c1OC)-c1ccc(OC)c(=O)cc1[C@@H](NC(C)=O)CC2 [colchicine]
sensitivity of anti-khcs GSE cells to the drug (surviving cells as percentage of growth without drug) [1]: hypersensitivity | resistance or sensitivity of GSE-carrying cells to the drug, long-term assay [1]: hypersensitive | effect of the drug in continuous presence [2]: growth inhibition but little detectable cell death | effect of anti-khcs GSE on the growth-inhibitory effect of the drug [2]: more susceptible to the growth-inhibitory effect | cell death after removal of the drug [2]: only limited cell death | change in resistance to the cytostatic effects of the drug induced by anti-khcs GSE [3]: no increase in resistance was observed

COc1cccc2c1C(=O)c1c(O)c3c(c(O)c1C2=O)C[C@@](O)(C(=O)CO)C[C@@H]3O[C@H]1C[C@H](N)[C@H](O)[C@H](C)O1 [Adriamycin, doxorubicin]
resistance or sensitivity of GSE-carrying cells to the drug, long-term assay [1]: resistant

Cc1c2oc3c(C)ccc(C(=O)N[C@@H]4C(=O)N[C@H](C(C)C)C(=O)N5CCC[C@H]5C(=O)N(C)CC(=O)N(C)[C@@H](C(C)C)C(=O)O[C@@H]4C)c3nc-2c(C(=O)N[C@@H]2C(=O)N[C@H](C(C)C)C(=O)N3CCC[C@H]3C(=O)N(C)CC(=O)N(C)[C@@H](C(C)C)C(=O)O[C@@H]2C)c(N)c1=O [actinomycin D] (I: T[dV]P[Sar][NMeV] / II: T[dV]P[Sar][NMeV]; ester I:1-I:C, II:1-II:C; linker I:N-II:N via Actinocin(9to1))
change in resistance to the cytostatic effects of the drug induced by anti-khcs GSE [3]: no increase in resistance was observed

CC[C@]1(O)C[C@@H]2CN(CCc3c([nH]c4ccccc34)[C@@](C(=O)OC)(c3cc4c(cc3OC)N(C)[C@H]3[C@@](O)(C(=O)OC)[C@H](OC(C)=O)[C@]5(CC)C=CCN6CC[C@]43[C@@H]65)C2)C1 [vinblastine]
sensitivity of anti-khcs GSE cells to the drug (surviving cells as percentage of growth without drug) [1]: hypersensitivity | resistance or sensitivity of GSE-carrying cells to the drug, long-term assay [1]: hypersensitive

CC[C@@]1(O)C(=O)OCc2c1cc1n(c2=O)Cc2cc3ccccc3nc2-1 [camptothecin]
effect of the drug in continuous presence [2]: growth inhibition but little detectable cell death | effect of anti-khcs GSE on the growth-inhibitory effect of the drug [2]: small decrease of the growth-inhibitory effect | cell death after removal of the drug [2]: extensive cell death | effect of anti-khcs GSE on cell death after release from the drug [2]: slight increase in cell death | overall change in drug resistance conferred by anti-khcs GSE, release vs continuous exposure [2]: no significant long-term difference

COc1cc([C@@H]2c3cc4c(cc3[C@@H](O[C@@H]3O[C@@H]5CO[C@@H](C)O[C@H]5[C@H](O)[C@H]3O)[C@H]3COC(=O)[C@H]23)OCO4)cc(OC)c1O [etoposide]
resistance or sensitivity of GSE-carrying cells to the drug, long-term assay [1]: resistant | effect of the drug in continuous presence [2]: growth inhibition but little detectable cell death | effect of anti-khcs GSE on the growth-inhibitory effect of the drug [2]: decreased the growth-inhibitory effect of the drug to the same, relatively small extent | cell death after removal of the drug [2]: extensive cell death | effect of anti-khcs GSE on cell death after release from the drug [2]: decreased the amount of cell death | overall change in drug resistance conferred by anti-khcs GSE, release vs continuous exposure [2]: much more pronounced after release from the drug

B1: anti-khcs: genetic suppressor element encoding antisense RNA for mouse kinesin heavy chain gene khcs (SEQ.ID.No.:3), in LNCX retroviral vector (nucleic acid)
antisense: CTTGATCCCTTCTGGTTGATGCCAGAAGCTCTTCCTGATCCAGCATTTGTATCTTCAATTTCTCTACCAATTGGCTTTGTTGGTTAATCTCTTCATCCTTGTCATCAAGTTGTTTATACAATTTAGCAAGTTCTTCTTCACACTTTCTTCTTTCAGCATCGGTAAAACTACCAGCCATTCCGACTGCAGCAGCTGGTTTATCACTGGTAATAGCAATATCTTTATCCGCTGTGAAGGCTTCCAAATTAGCTTTCTCTTTGTCAAACTGCTCATCAATAGGCACTGTCTCCCCGTTACGCCAACGGTTTAGCTCGTTTTCCAGCCACT
modifications: in LNCX retroviral vector
features of neoplastic transformation in post-crisis cells ([4]; microscopic): no microscopically visible features of neoplastic transformation | proportion of cells surviving the crisis ([4]; relative to uninfected MEF or control LNCX virus, two weeks after crisis): great increase | etoposide resistance of transfectants [5]: clearly increased etoposide resistance | additional passages survived ([6]; after control cells went into crisis): at least five | growth when control cells went into crisis ([6]; infected at fifth passage, four passages later): continued to grow | growth rate and plating efficiency of freshly-obtained multiply-infected cells [7]: decreased growth rate and plating efficiency | ability to confer etoposide resistance after retroviral transduction [8]: induce etoposide resistance
